Key:
[1] = cited from earlier work
PDE4H = settings: cited from earlier work
PDE4 subtypes (A~D) = test system: PDE4 subtypes (A~D); design: method as in PMID 16458289; settings: cited from earlier work
PDE4L = settings: cited from earlier work
[2] = test system: ovalbumin-induced airway inflammation; design: method as in PMID 21287361; settings: compared with the ovalbumin-induced group; H&E and alcian blue-PAS staining; cited from earlier work
[3] = test system: high-affinity rolipram-binding sites (HARBSs) of guinea pig brain cell membranes; test: Displacement of 2 nM [3H]-rolipram from high-affinity rolipram-binding sites (PDE4H); settings: 2 nM [3H]-rolipram, 30°C, 1 h; read-out: EC50 (PDE4H) for displacing [3H]-rolipram binding
Experimental: When the above-mentioned guinea pigs were sacrificed, the whole brains were removed and homogenized with a glass/Teflon homogenizer (Glas-Col, Terre Haute, IN, USA) in 10 volumes of cold medium (pH 6.5) containing 20 mM Bis-Tris, 2 mM benzamidine, 2 mM EDTA, 50 mM sodium chloride, 0.1 mM PMSF, and 1 mM dithiothreitol. At 4°C, the homogenate was centrifuged at 170 g for 5 min to remove connective tissues and blood vessels. The suspended homogenate was then re-centrifuged at 40,000 g for 30 min to separate the cytosolic and particulate portions. The particulate portion was re-suspended in a suspension at a concentration of 400 mg/ml (wet weight/volume), after washing three times with homogenizing buffer. The particulate portion mainly consisted of cell membranes. […] Briefly, the reaction buffer consisted of 50 mM Tris-HCl and 5 mM MgCl2 (pH 7.5). […] After 1 h, the reaction was terminated by moving the reaction vessel into crushed ice. Then the reaction mixture was transferred onto Whatman GF/B glass-fiber filters, which were soaked in a 0.3% polyethyleneimine solution in a mini-funnel.

PDE4 [4] = test: Inhibition of PDE4 activity, two-step procedure and Lineweaver-Burk analysis; format: biochemical, guinea pig
Experimental: (§1) Activities of PDE1~5 in the homogenate of guinea pig lungs or hearts were measured by a two-step procedure according to the previous method, using cAMP with [^3H]-cAMP or cGMP with [^3H]-cGMP as substrates. […] The reagents and homogenate were mixed on ice, and the reaction was initiated by transferring the mixture to a water bath at 37°C. Following a 30-min incubation, the reaction was stopped by transferring the reaction vessel to a bath of boiling water for 3 min. After cooling on ice, 20 μl of a 1 mg/ml solution of Crotalus atrox snake venom was added to the reaction mixture, and the mixture was incubated at 37°C for 10 min. Unreacted [^3H]-cAMP or [^3H]-cGMP was removed by the addition of 500 μl of a 1-in-1 Tris-HCl (40 mM) buffer suspension of Dowex resin (1 × 8-200) with incubation on ice for 30 min. Each tube was then centrifuged at 3700 g for 2 min, and 150 μl of the supernatant was removed for liquid scintillation counting. […] The total protein in each fraction used was assayed according to a previous method. PDE activities are reported as nmol/mg/min.

emesis = test system: emesis; design: method as in PMID 11114405; settings: ferrets; cited from earlier work
[5] = test system: duration of xylazine/ketamine-induced anesthesia; test: Xylazine/ketamine-induced anesthesia; settings: 0.25 h before anesthesia
Experimental: After loss of the righting reflex (i.e., when a mouse remained on its back and no longer spontaneously righted itself to a prone position), the duration of anesthesia was measured until its return as the endpoint.

[6] = test system: xylazine/ketamine-induced anesthesia; design: method as in PMID 11786486; settings: rats; cited from earlier work
PDE1 = test: Inhibition of PDE1 activity, two-step procedure; format: biochemical; settings: homogenate of guinea pig lungs or hearts
Experimental: as §1

PDE3 = test: Inhibition of PDE3 activity, two-step procedure; format: biochemical; settings: homogenate of guinea pig lungs or hearts
Experimental: as §1

PDE4 [7] = test system: PDE4; design: method as in PMID 15476679; settings: cited from earlier work

O=C(Nc1c(Cl)cncc1Cl)c1ccc(OC(F)F)c(OCC2CC2)c1 [roflumilast]
mean pre- and post-bronchodilator FEV1 ([1]; patients with moderate-to-severe COPD, compared to placebo): significantly improve | nausea, diarrhea, weight loss, and headaches ([1]; patients with moderate-to-severe COPD): more frequent | PDE4H value (PDE4H): 2.4 nM | PDE4H/PDE4L ratio (PDE4H): 3 | selectivity among PDE4 subtypes (PDE4 subtypes (A~D)): non-selective for these four PDE4 subtypes | PDE4L value (PDE4L): 0.8 nM

CCOc1cc([C@@H](CS(C)(=O)=O)N2C(=O)c3cccc(NC(C)=O)c3C2=O)ccc1OC [apremilast]
efficacy in severe plaque-type psoriasis ([1]; oral): effective

COc1ccc([C@@H]2CC(=O)c3c(O)cc(O[C@@H]4O[C@H](CO[C@@H]5O[C@@H](C)[C@H](O)[C@@H](O)[C@H]5O)[C@@H](O)[C@H](O)[C@H]4O)cc3O2)cc1O [hesperidin]
effect on inflammatory cell infiltration and mucus hypersecretion in lung [2]: inhibit inflammatory cell infiltration and mucus hypersecretion

O=C(Nc1c(Cl)cncc1Cl)C(=O)c1cn(Cc2ccc(F)cc2)c2ccc(O)cc12 [AWD 12-281, N-(3,5-dichloro-pyrid-4-yl)-[1-(4-fluorobenzyl)-5-hydroxy-indole-3-yl]-glyoxylic acid amide]
efficacy in clinical trials for asthma and COPD [1]: lack of efficacy | PDE4H value (PDE4H): 104 nM | PDE4H/PDE4L ratio (PDE4H): approximately 11 | PDE4L value (PDE4L): 9.7 nM

CCCCOc1cc(CC2CNC(=O)N2)ccc1OC (centres unmarked) [Ro 20-1724, 4-(3-butoxy-4-methoxybenzyl)-2-imidazolidinone, reference compound]
EC50 [3]: 0.087 ± 0.029 µM | mode of PDE4 inhibition (PDE4 [4]; Lineweaver-Burk analysis, inhibitor 1~10 μM): competitively inhibited | Ki (PDE4 [4]; Lineweaver-Burk analysis, inhibitor 1~10 μM, substrate cAMP, read-out: dissociation constant for inhibitory binding (Ki), PDE4): 8.1 ± 2.4 µM | IC50 (PDE4 [4]; homogenate of guinea pig lungs or hearts): 4.3 ± 2.1 µM

Clc1cccc(Cl)c1N=C1NCCN1 [clonidine]
effect on emesis induced by PDE4 inhibitors (emesis): prevented emesis

COc1ccc(C2CNC(=O)C2)cc1OC1CCCC1 (centres unmarked) [Rolipram, rolipram]
PDE4H/PDE4L ratio (PDE4H): 0.01~0.001 | effect on duration of xylazine/ketamine-induced anesthesia ([5]; 0.01~1 μmol/kg s.c.): dose-dependently shortened | effect on duration of xylazine/ketamine-induced anesthesia ([5]; 0.01~1 μmol/kg s.c., listed as rolipram): reversed the anesthesia | effect on duration of xylazine/ketamine-induced anesthesia ([5]; 0.1 and 1 μmol/kg s.c.): significantly shortened

CN1CC[C@]2(CCN3CCc4c(oc5ccccc45)[C@@H]3C2)N(C)C1=O.Cl [MK-912]
vomiting (emesis): trigger vomiting | effect on xylazine/ketamine-induced anesthesia [6]: reverse xylazine/ketamine-induced anesthesia

COc1cccc(Nc2c(C(N)=O)cnc3c(C)cc(S(=O)(=O)c4cccc(C(=O)N(C)C)c4)cc23)c1 [GSK256066]
efficacy in trials in asthma ([1]; inhaled): demonstrated efficacy

CCOC(=O)C1=C[C@]2(CC)CCCN3CCc4c(n1c1ccccc41)[C@@H]32 [vinpocetin, Vinpocetine, reference compound]
IC50 (PDE1): 42.3 ± 5.8 µM

Cc1[nH]c(=O)c(C#N)cc1-c1ccncc1 [milrinone, reference compound]
IC50 (PDE3): 2.5 ± 1.6 µM

COc1ccc([C@]2(C#N)CC[C@@H](C(=O)O)CC2)cc1OC1CCCC1 [cilomilast]
tolerability: diarrhea and nausea ([1]; COPD phase III study, 15 mg twice daily over 6 months): higher frequencies of diarrhea and nausea than a placebo | PDE4H value (PDE4H): 117.8 nM | PDE4H/PDE4L ratio (PDE4H): 1 | selectivity among PDE4 subtypes (PDE4 subtypes (A~D)): higher potency for PDE4D compared to PDE4A and PDE4B | PDE4L value (PDE4L): 120 nM

COc1ccc(C2CC(=O)c3c(O)cc(O)cc3O2)cc1O (centres unmarked) [hesperetin, 5,7,3'-trihydroxy-4'-methoxyflavanone]
selectivity of PDE inhibition (PDE4 [7]): selectively inhibit PDE4 activity

Reference: PMC3225327 (Journal of Biomedical Science, 2011)
